In US11390613B2, “Azole analogues and methods of use thereof” (UNIVERSITY OF CONNECTICUT, priority 2017, dated 2022):
Where two headings read alike, the source gives them in different places.

System: Gli1 mRNA levels in the murine BCC cell line ASZ-001 (Hh pathway)
Assay: Hh pathway inhibition: endogenous Gli1 mRNA (qRT-PCR) in ASZ-001 cells
Format: cell-based
Protocol: Initial Hh inhibition studies.
General Information for Cell Culture Studies Protocols for general cell culture, qPCR, and Hh inhibition ASZ cells are as previously described.
General Information for Cell Culture Studies. Protocols for general cell culture, qPCR, and Hh inhibition ASZ cells are as previously described.
Gene Expression Assay Protocol (ASZ-001): Cells are seeded (10,000 cells per well; 100 μL total volume per well) in a 96-well tissue culture plate. After 24 h of incubation (37° C., 5% CO2), growth media was removed and replaced with low FBS media. Cells were incubated for an additional 24 h. After this time, DMSO (vehicle control) and liposomes (Aqueous Solution) were added to the wells. […]
Rt-PCR Protocol: Following treatment and incubation periods, both RNA extraction and cDNA synthesis were performed using a TaqMan Cells-to-CT (fast) kit. cDNA synthesis utilized a BioRad MyCycler and was programmed according to the manufacturer's instructions. Quantitative RT-PCR was performed on an ABI 7500 system and made use of the following TaqMan Gene Expression Probes: mouse ActB (Mm00607939_s1) and mouse Gli1 (Mm00494654_m1). Relative gene expression levels were computed via ΔΔCT method using GraphPad Prism. Corresponding IC50 values were calculated as mean±SEM for at least three separate experiments performed in triplicate.

[1] = Table 6, ASZ cells, Gli1 mRNA, 48 h incubation, read-out: IC50
[2] = Table 7, ASZ cells, Gli1 mRNA, 48 h incubation, read-out: IC50
[3] = Table 7, ASZ cells, Gli1 mRNA, 48 h incubation
[4] = Mus musculus, ASZ001, Table P2, ASZ cells, Gli1 mRNA, 48 h incubation, read-out: IC50

`C[C@@]1(c2ccc(Cl)cc2Cl)OC[C@@H](COc2ccc(N3CCN(c4ccc([N+](=O)[O-])cc4)CC3)cc2)O1` [Compound 6, 1-(4-(((2R,4R)-2-(2,4-dichlorophenyl)-2-methyl-1,3-dioxolan-4-yl)methoxy)phenyl)-4-(4-nitrophenyl)piperazine] showed an IC50 (Mus musculus, ASZ001, 48 h) of 310 ± 40 nM.
`C[C@]1(c2ccc(Cl)cc2Cl)OC[C@@H](COc2ccc(N3CCN(c4ccc([N+](=O)[O-])cc4)CC3)cc2)O1` [Compound 7, 1-(4-(((2S,4R)-2-(2,4-dichlorophenyl)-2-methyl-1,3-dioxolan-4-yl)methoxy)phenyl)-4-(4-nitrophenyl)piperazine] was tested, and the IC50 (Mus musculus, ASZ001, 48 h) was 260 ± 40 nM.
For `C[C@]1(c2ccc(Cl)cc2Cl)OC[C@@H](COc2ccc(N3CCN(c4ccc(N)cc4)CC3)cc2)O1` [Compound 9, 4-(4-(4-(((2S,4R)-2-(2,4-dichlorophenyl)-2-methyl-1,3-dioxolan-4-yl)methoxy)phenyl)piperazin-1-yl)aniline], the IC50 (Mus musculus, ASZ001, 48 h) was 390 ± 90 nM.
For `C[C@@]1(c2ccc(Cl)cc2Cl)OC[C@@H](COc2ccc(N3CCN(c4ccc(NC(=O)c5ccccc5)cc4)CC3)cc2)O1` [Compound 10, N-(4-(4-(4-(((2R,4R)-2-(2,4-dichlorophenyl)-2-methyl-1,3-dioxolan-4-yl)methoxy)phenyl)piperazin-1-yl)phenyl)benzamide], the IC50 [1] was over 10000 nM.
In the case of `C[C@@]1(c2ccc(Cl)cc2Cl)OC[C@@H](COc2ccc(N3CCN(c4ccc(NC(=O)c5ccc6ccccc6c5)cc4)CC3)cc2)O1` [Compound 11, N-(4-(4-(4-(((2R,4R)-2-(2,4-dichlorophenyl)-2-methyl-1,3-dioxolan-4-yl)methoxy)phenyl)piperazin-1-yl)phenyl)-2-naphthamide], the IC50 [1] is reported as over 10000 nM.
`C[C@@]1(c2ccc(Cl)cc2Cl)OC[C@@H](COc2ccc(N3CCN(c4ccc(NC(=O)c5ccccn5)cc4)CC3)cc2)O1` [Compound 12, N-(4-(4-(4-(((2R,4R)-2-(2,4-dichlorophenyl)-2-methyl-1,3-dioxolan-4-yl)methoxy)phenyl)piperazin-1-yl)phenyl)picolinamide] was tested, and the IC50 [1] was over 10000 nM.
`C[C@@]1(c2ccc(Cl)cc2Cl)OC[C@@H](COc2ccc(N3CCN(c4ccc(NC(=O)c5ccncc5)cc4)CC3)cc2)O1` [Compound 14, N-(4-(4-(4-(((2R,4R)-2-(2,4-dichlorophenyl)-2-methyl-1,3-dioxolan-4-yl)methoxy)phenyl)piperazin-1-yl)phenyl)isonicotinamide] showed an IC50 [1] of over 10000 nM.
Work on `C[C@]1(c2ccc(Cl)cc2Cl)OC[C@@H](COc2ccc(N3CCN(c4ccc(NC(=O)c5ccccc5)cc4)CC3)cc2)O1` [Compound 15, N-(4-(4-(4-(((2S,4R)-2-(2,4-dichlorophenyl)-2-methyl-1,3-dioxolan-4-yl)methoxy)phenyl)piperazin-1-yl)phenyl)benzamide] yielded an IC50 [1] of over 10000 nM.
`C[C@]1(c2ccc(Cl)cc2Cl)OC[C@@H](COc2ccc(N3CCN(c4ccc(NC(=O)c5ccc6ccccc6c5)cc4)CC3)cc2)O1` [Compound 16, N-(4-(4-(4-(((2S,4R)-2-(2,4-dichlorophenyl)-2-methyl-1,3-dioxolan-4-yl)methoxy)phenyl)piperazin-1-yl)phenyl)-2-naphthamide] was tested, and the IC50 [1] was over 10000 nM.
Work on `C[C@]1(c2ccc(Cl)cc2Cl)OC[C@@H](COc2ccc(N3CCN(c4ccc(NC(=O)c5ccccn5)cc4)CC3)cc2)O1` [Compound 17, N-(4-(4-(4-(((2S,4R)-2-(2,4-dichlorophenyl)-2-methyl-1,3-dioxolan-4-yl)methoxy)phenyl)piperazin-1-yl)phenyl)picolinamide] yielded an IC50 (Mus musculus, ASZ001, 48 h) of 3900 ± 300 nM.
In the case of `C[C@]1(c2ccc(Cl)cc2Cl)OC[C@@H](COc2ccc(N3CCN(c4ccc(NC(=O)c5ccncc5)cc4)CC3)cc2)O1` [Compound 19, N-(4-(4-(4-(((2S,4R)-2-(2,4-dichlorophenyl)-2-methyl-1,3-dioxolan-4-yl)methoxy)phenyl)piperazin-1-yl)phenyl)isonicotinamide], the IC50 [1] is reported as over 10000 nM.
`C[C@@]1(c2ccc(Cl)cc2Cl)OC[C@@H](COc2ccc(N3CCN(c4ccc(NC(=O)c5ccccc5O)cc4)CC3)cc2)O1` [Compound 26, N-(4-(4-(4-(((2R,4R)-2-(2,4-dichlorophenyl)-2-methyl-1,3-dioxolan-4-yl)methoxy)phenyl)piperazin-1-yl)phenyl)-2-hydroxybenzamide] gave an IC50 [1] of over 10000 nM.
`C[C@@]1(c2ccc(Cl)cc2Cl)OC[C@@H](COc2ccc(N3CCN(c4ccc(NC(=O)c5ccc(O)cc5)cc4)CC3)cc2)O1` [Compound 28, N-(4-(4-(4-(((2R,4R)-2-(2,4-dichlorophenyl)-2-methyl-1,3-dioxolan-4-yl)methoxy)phenyl)piperazin-1-yl)phenyl)-4-hydroxybenzamide] was tested, and the IC50 [1] was over 10000 nM.
In the case of `C[C@]1(c2ccc(Cl)cc2Cl)OC[C@@H](COc2ccc(N3CCN(c4ccc(NC(=O)c5ccccc5O)cc4)CC3)cc2)O1` [Compound 29, N-(4-(4-(4-(((2S,4R)-2-(2,4-dichlorophenyl)-2-methyl-1,3-dioxolan-4-yl)methoxy)phenyl)piperazin-1-yl)phenyl)-2-hydroxybenzamide], the IC50 (Mus musculus, ASZ001, 48 h) is reported as 2200 ± 300 nM.
`C[C@]1(c2ccc(Cl)cc2Cl)OC[C@@H](COc2ccc(N3CCN(c4ccc(NC(=O)c5ccc(O)cc5)cc4)CC3)cc2)O1` [Compound 31, N-(4-(4-(4-(((2S,4R)-2-(2,4-dichlorophenyl)-2-methyl-1,3-dioxolan-4-yl)methoxy)phenyl)piperazin-1-yl)phenyl)-4-hydroxybenzamide] gave an IC50 [1] of 3000 ± 100 nM.
`C[C@]1(c2ccc(Cl)cc2Cl)OC[C@@H](COc2ccc(N3CCN(c4ccc(NC(=O)c5cccc(Cl)c5)cc4)CC3)cc2)O1` [Compound 32, 3-chloro-N-(4-(4-(4-(((2S,4R)-2-(2,4-dichlorophenyl)-2-methyl-1,3-dioxolan-4-yl)methoxy)phenyl)piperazin-1-yl)phenyl)benzamide] showed an IC50 [2] of over 10000 nM.
`COc1cccc(C(=O)Nc2ccc(N3CCN(c4ccc(OC[C@@H]5CO[C@](C)(c6ccc(Cl)cc6Cl)O5)cc4)CC3)cc2)c1` [Compound 33, N-(4-(4-(4-(((2S,4R)-2-(2,4-dichlorophenyl)-2-methyl-1,3-dioxolan-4-yl)methoxy)phenyl)piperazin-1-yl)phenyl)-3-methoxybenzamide] showed an IC50 (Mus musculus, ASZ001, 48 h) of 5700 nM.
In the case of `C[C@]1(c2ccc(Cl)cc2Cl)OC[C@@H](COc2ccc(N3CCN(c4ccc(NC(=O)c5ccoc5)cc4)CC3)cc2)O1` [Compound 35, N-(4-(4-(4-(((2S,4R)-2-(2,4-dichlorophenyl)-2-methyl-1,3-dioxolan-4-yl)methoxy)phenyl)piperazin-1-yl)phenyl)furan-3-carboxamide], the “IC50 (μM)” value [3] is reported as “inactive” and the IC50 [2] is reported as over 10000 nM.
For `C[C@]1(c2ccc(Cl)cc2Cl)OC[C@@H](COc2ccc(N3CCN(c4ccc(NC(=O)c5ccsc5)cc4)CC3)cc2)O1` [Compound 36, N-(4-(4-(4-(((2S,4R)-2-(2,4-dichlorophenyl)-2-methyl-1,3-dioxolan-4-yl)methoxy)phenyl)piperazin-1-yl)phenyl)thiophene-3-carboxamide], the “IC50 (μM)” value [3] was “inactive” and the IC50 [2] was over 10000 nM.
Work on `C[C@@]1(c2ccc(Cl)cc2Cl)OC[C@@H](COc2ccc(N3CCN(c4ccc(-n5cn[nH]c5=O)cc4)CC3)cc2)O1` [Compound 41] yielded an IC50 (Table 8, ASZ cells, Gli1 mRNA, 48 h incubation, read-out: IC50) of 140 nM.
`C[C@]1(c2ccc(Cl)cc2Cl)OC[C@@H](COc2ccc(N3CCN(c4ccc(-n5cn[nH]c5=O)cc4)CC3)cc2)O1` [Compound 42, 4-(4-(4-(4-(((2S,4R)-2-(2,4-dichlorophenyl)-2-methyl-1,3-dioxolan-4-yl)methoxy)phenyl)piperazin-1-yl)phenyl)-1H-1,2,4-triazol-5(4H)-one] gave an IC50 (Mus musculus, ASZ001, 48 h) of 210 nM.
For `CC1(c2ccc(Cl)cc2Cl)OCC(COc2ccc(N3CCN(c4ccc(-n5cnn(CCC(=O)O)c5=O)cc4)CC3)cc2)O1` (stereo not drawn) [Compound I17, 3-(4-(4-(4-(4-((2-(2,4-dichlorophenyl)-2-methyl-1,3-dioxolan-4-yl)methoxy)phenyl)piperazin-1-yl)phenyl)-5-oxo-4,5-dihydro-1H-1,2,4-triazol-1-yl)propanoic acid], the IC50 [4] was 12 ± 5 nM.
`C[C@]1(c2ccc(F)cc2F)C[C@H](COc2ccc(N3CCN(c4ccc(-n5cnn(CCC(=O)O)c5=O)cc4)CC3)cc2)CO1` [Compound P13, 3-(4-(4-(4-(4-(((3R,5R)-5-(2,4-difluorophenyl)-5-methyltetrahydrofuran-3-yl)methoxy)phenyl)piperazin-1-yl)phenyl)-5-oxo-4,5-dihydro-1H-1,2,4-triazol-1-yl)propanoic acid] showed an IC50 [4] of 32 ± 10 nM.
Molecule `C[C@]1(c2ccc(F)cc2F)C[C@H](COc2ccc(N3CCN(c4ccc(-n5cnn(CC(=O)O)c5=O)cc4)CC3)cc2)CO1` [Compound P14, 2-(4-(4-(4-(4-(((3R,5R)-5-(2,4-difluorophenyl)-5-methyltetrahydrofuran-3-yl)methoxy)phenyl)piperazin-1-yl)phenyl)-5-oxo-4,5-dihydro-1H-1,2,4-triazol-1-yl)acetic acid] has an IC50 [4] of 150 ± 20 nM.
In the case of `C[C@]1(c2ccc(F)cc2F)C[C@H](COc2ccc(N3CCN(c4ccc(-n5cnn(CCCO)c5=O)cc4)CC3)cc2)CO1` [Compound P15, 4-(4-(4-(4-(((3R,5R)-5-(2,4-difluorophenyl)-5-methyltetrahydrofuran-3-yl)methoxy)phenyl)piperazin-1-yl)phenyl)-2-(3-hydroxypropyl)-2,4-dihydro-3H-1,2,4-triazol-3-one], the IC50 [4] is reported as 20 ± 10 nM.
